Test results as given in ChEMBL document CHEMBL1201862, “PubChem BioAssay data set” (2004).
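All cell lines were grown in 96-well plates and treated with compound for 48 hours. Here, GI50 denotes the concentration required for 50% inhibition of growth.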 Active and inactive are the calls of the source. Cut-off read from the data, not from the text of the source: active = GI50 up to about 1.1 µM and inactive = higher.

Assays:
Assay in all cases: growth of human tumour cells (NCI), 48 h
SNB-19 = test system: SNB-19
HCT-15 = test system: HCT-15
ACHN = test system: ACHN
M14 = test system: M14
NCI-H460 = test system: NCI-H460
UACC-62 = test system: UACC-62
LXFL 529 = test system: LXFL 529
SK-OV-3 = test system: SK-OV-3
A549 = test system: A549
RXF 393 = test system: RXF 393
KM12 = test system: KM12
CCRF-CEM = test system: CCRF-CEM
HL-60 = test system: HL-60
SNB-75 = test system: SNB-75

Row | SMILES | GI50 (SNB-19) | GI50 (HCT-15) [µM] | GI50 (ACHN) | GI50 (M14) | GI50 (NCI-H460) | GI50 (UACC-62) | GI50 (LXFL 529) | GI50 (SK-OV-3) | GI50 (A549) | GI50 (RXF 393) | GI50 (KM12) | GI50 (CCRF-CEM) | GI50 (HL-60) | GI50 (SNB-75)
1 | CC1(C)OB(O)OC1(C)C | > 100 µM (inactive) | > 100 | > 100 µM (inactive) | > 100 µM (inactive) | > 100 µM (inactive) | > 100 µM (inactive) | > 100 µM (inactive) | > 100 µM (inactive) | > 100 µM (inactive) | > 100 µM (inactive) | > 100 µM (inactive) | > 100 µM (inactive) | > 100 µM (inactive) | > 100 µM (inactive)
2 | O=C(O)/C(Cl)=C(\Cl)C(=O)NC1C2CC3CC(C2)CC1C3 (stereo unspecified) | > 100 µM (inactive) | > 100 | > 100 µM (inactive) | > 100 µM (inactive) | – | > 100 µM (inactive) | > 100 µM (inactive) | > 100 µM (inactive) | > 100 µM (inactive) | – | 9.64 µM (inactive) | > 100 µM (inactive) | > 100 µM (inactive) | > 100 µM (inactive)
3 | C/C(=C\CC/C=C(\C)CC/C=C(\C)CCC1SC1(C)C)CC/C=C(\C)CCC1OC1(C)C (stereo unspecified) | > 100 µM (inactive) | > 100 | > 100 µM (inactive) | > 100 µM (inactive) | > 100 µM (inactive) | – | > 100 µM (inactive) | > 100 µM (inactive) | > 100 µM (inactive) | 89.7 µM (inactive) | > 100 µM (inactive) | > 100 µM (inactive) | > 100 µM (inactive) | > 100 µM (inactive)
4 | O=[N+]([O-])C1(CO)COC(CCc2ccccc2)OC1 (stereo unspecified) | – | > 100 | > 100 µM (inactive) | > 100 µM (inactive) | > 100 µM (inactive) | > 100 µM (inactive) | > 100 µM (inactive) | > 100 µM (inactive) | > 100 µM (inactive) | > 100 µM (inactive) | > 100 µM (inactive) | > 100 µM (inactive) | > 100 µM (inactive) | > 100 µM (inactive)
5 | Cc1ccc(C2=C(c3ccc(C)cc3)C(c3ccc(C)cc3)=C(c3ccc(C)cc3)C2=O)cc1 | > 100 µM (inactive) | > 100 | > 100 µM (inactive) | > 100 µM (inactive) | > 100 µM (inactive) | – | > 100 µM (inactive) | > 100 µM (inactive) | > 100 µM (inactive) | > 100 µM (inactive) | > 100 µM (inactive) | > 100 µM (inactive) | – | > 100 µM (inactive)
6 | CC12CC3C(CC1SCC(=O)O2)C3(C)C (stereo unspecified) | – | > 100 | > 100 µM (inactive) | > 100 µM (inactive) | > 100 µM (inactive) | – | > 100 µM (inactive) | > 100 µM (inactive) | > 100 µM (inactive) | – | > 100 µM (inactive) | > 100 µM (inactive) | > 100 µM (inactive) | > 100 µM (inactive)
7 | CC(C)C(/C=C/c1ccc(Br)cc1)=N\NC(N)=O | > 100 µM (inactive) | > 100 | > 100 µM (inactive) | > 100 µM (inactive) | > 100 µM (inactive) | > 100 µM (inactive) | 56.4 µM (inactive) | > 100 µM (inactive) | > 100 µM (inactive) | > 100 µM (inactive) | > 100 µM (inactive) | > 100 µM (inactive) | > 100 µM (inactive) | > 100 µM (inactive)
8 | COC(=O)c1nc(-c2ccc(Cl)c(Cl)c2)nc2ccc(Cl)cc12 | 44.1 µM (inactive) | – | 44.6 µM (inactive) | – | > 100 µM (inactive) | 87.3 µM (inactive) | > 100 µM (inactive) | 20.6 µM (inactive) | 97.7 µM (inactive) | 22.8 µM (inactive) | > 100 µM (inactive) | > 10 µM (inactive) | > 100 µM (inactive) | 19.6 µM (inactive)
9 | Cc1cn(C2CC(OC3CCCCO3)C(CO)O2)c(=O)[nH]c1=O (stereo unspecified) | > 100 µM (inactive) | > 100 | > 100 µM (inactive) | > 100 µM (inactive) | > 100 µM (inactive) | – | > 100 µM (inactive) | > 100 µM (inactive) | > 100 µM (inactive) | > 100 µM (inactive) | > 100 µM (inactive) | > 100 µM (inactive) | > 100 µM (inactive) | –
10 | CC(=O)OC12c3ccccc3C1CCCCCC21OCCCO1 (stereo unspecified) | > 100 µM (inactive) | > 100 | > 100 µM (inactive) | > 100 µM (inactive) | > 100 µM (inactive) | > 100 µM (inactive) | > 100 µM (inactive) | > 100 µM (inactive) | > 100 µM (inactive) | > 100 µM (inactive) | > 100 µM (inactive) | > 100 µM (inactive) | > 100 µM (inactive) | > 100 µM (inactive)
11 | Cc1cc(C)nc(NS(=O)(=O)c2ccc(NC(=O)c3cccc4c(Nc5ccc(S(=O)(=O)N=C(N)N)cc5)c5ccccc5nc34)cc2)n1 | 33.1 µM (inactive) | 30.1 | 47.1 µM (inactive) | 94.6 µM (inactive) | 83.6 µM (inactive) | 29.9 µM (inactive) | 3.88 µM (inactive) | > 100 µM (inactive) | 62.5 µM (inactive) | 15.6 µM (inactive) | 6.17 µM (inactive) | 45.6 µM (inactive) | 5.56 µM (inactive) | 38 µM (inactive)
12 | CC(=O)Nc1ccc(-c2nnc(SCC(=O)Nc3ccc([N+](=O)[O-])cc3)o2)cc1 | – | 12.9 | 15.4 µM (inactive) | 13.9 µM (inactive) | 15.2 µM (inactive) | 9.84 µM (inactive) | 7.93 µM (inactive) | 17.8 µM (inactive) | 17.5 µM (inactive) | 14.7 µM (inactive) | 14.5 µM (inactive) | 12.6 µM (inactive) | > 100 µM (inactive) | 13.2 µM (inactive)
13 | CCOc1ccc(C2=NN(CC)C(=O)C(C3C(=O)N(c4ccccc4)N=C3C)C2)cc1 (stereo unspecified) | > 100 µM (inactive) | > 100 | > 100 µM (inactive) | > 100 µM (inactive) | > 100 µM (inactive) | > 100 µM (inactive) | > 100 µM (inactive) | > 100 µM (inactive) | > 100 µM (inactive) | > 100 µM (inactive) | > 100 µM (inactive) | > 100 µM (inactive) | > 100 µM (inactive) | –
14 | CC(CC(=O)N1C(=O)C(C)(C)[C@@H](O)[C@H]1CC(C)C(Cl)(Cl)Cl)C(Cl)(Cl)Cl (stereo partly specified) | > 100 µM (inactive) | > 100 | > 100 µM (inactive) | > 100 µM (inactive) | > 100 µM (inactive) | > 100 µM (inactive) | > 100 µM (inactive) | > 100 µM (inactive) | > 100 µM (inactive) | – | > 100 µM (inactive) | > 100 µM (inactive) | > 100 µM (inactive) | > 100 µM (inactive)
15 | O=C(CCc1n[nH]c(=S)o1)Nc1cc(Cl)ccc1Cl | > 100 µM (inactive) | 20.7 | 61.1 µM (inactive) | > 100 µM (inactive) | 51.3 µM (inactive) | > 100 µM (inactive) | 76.4 µM (inactive) | > 100 µM (inactive) | 50.6 µM (inactive) | – | > 100 µM (inactive) | 33.8 µM (inactive) | 30.5 µM (inactive) | > 100 µM (inactive)
16 | C[Si](C)(C)/C=C\CCO | > 100 µM (inactive) | > 100 | > 100 µM (inactive) | > 100 µM (inactive) | > 100 µM (inactive) | > 100 µM (inactive) | > 100 µM (inactive) | > 100 µM (inactive) | > 100 µM (inactive) | > 100 µM (inactive) | > 100 µM (inactive) | > 100 µM (inactive) | > 100 µM (inactive) | > 100 µM (inactive)
17 | c1ccc(C2(c3ccccc3)SSC3(S2)C2CC4CC(C2)CC3C4)cc1 (stereo unspecified) | > 100 µM (inactive) | > 100 | > 100 µM (inactive) | > 100 µM (inactive) | > 100 µM (inactive) | > 100 µM (inactive) | > 100 µM (inactive) | > 100 µM (inactive) | > 100 µM (inactive) | > 100 µM (inactive) | > 100 µM (inactive) | 39.7 µM (inactive) | 35.9 µM (inactive) | > 100 µM (inactive)
18 | N#CC(C(=O)/C(=N\NC(N)=O)C(C#N)c1ccc(Cl)cc1)c1ccc(Cl)cc1 (stereo unspecified) | > 100 µM (inactive) | > 100 | > 100 µM (inactive) | > 100 µM (inactive) | > 100 µM (inactive) | > 100 µM (inactive) | > 100 µM (inactive) | > 100 µM (inactive) | > 100 µM (inactive) | > 100 µM (inactive) | > 100 µM (inactive) | > 100 µM (inactive) | > 100 µM (inactive) | –
19 | CCc1cccc(C)c1N1C(=O)C(=O)C(c2nc3ccccc3o2)/C(=N/NC(=S)NN)C1=O (stereo unspecified) | > 100 µM (inactive) | > 100 | > 100 µM (inactive) | > 100 µM (inactive) | > 100 µM (inactive) | > 100 µM (inactive) | > 100 µM (inactive) | > 100 µM (inactive) | > 100 µM (inactive) | > 100 µM (inactive) | > 100 µM (inactive) | > 100 µM (inactive) | > 100 µM (inactive) | > 100 µM (inactive)
20 | Nc1ncnc2c1ncn2CCOC(c1ccccc1)P(=O)(O)O (stereo unspecified) | > 100 µM (inactive) | > 100 | > 100 µM (inactive) | – | > 100 µM (inactive) | > 100 µM (inactive) | > 100 µM (inactive) | > 100 µM (inactive) | > 100 µM (inactive) | > 100 µM (inactive) | > 100 µM (inactive) | > 100 µM (inactive) | > 100 µM (inactive) | > 100 µM (inactive)
